Source: patent US9809583B2 (priority 2014, dated 2017)

Key:
androgen receptor (hAR) [1] = biological target: T1, androgen receptor (hAR) (Homo sapiens (Human), UniProt P10275); assay: biochemical; format: binding; conditions: 1 nM [3H]MIB, hAR-transfected COS-7 cells, 2 hours; read-out: IC50 [nM] (mean ± SE)
Experimental: In order to examine binding ability of the agonists of the present invention to androgen receptors, the following in-vitro experiment was performed. African green monkey kidney fibroblast-like cell line, COS-7 (ATCC, #CRL-1651) was seeded in a 48-well plate at a density of 2.5×10^4 cells/well, and cultured for 24 hours. Then, a plasmid hAR-mixed medium was added thereto. […] Thereafter, the cells were lysed and the amount of [3H]MIB bound to the intracellular androgen receptors was measured using a radiation dosimeter.

androgen receptor (hAR) [2] = biological target: T1, androgen receptor (hAR); assay: Test of transcriptional activity (hAR / ARE-Luc dual-luciferase assay in CHO cells); format: cell-based; conditions: EC50 [nM] (mean ± SE), CHO cells with hAR and ARE-Luc, 24 hours; 10 nM DHT = 100%
In short: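 CHO cells cultured 24 h, then transfected with hAR and ARE-Luc plasmids. Transfected cells treated with 0.1˜10,000 nM compound for 24 h; transcriptional activity read by dual-luciferase reporter.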

castrated male rats = assay: Efficacy test in castrated male rat (Hershberger assay); format: in vivo, SD (Sprague-Dawley) rat; conditions: castrated male SD rats, oral once a day for 14 days
Experimental: SD (Sprague-Dawley) male rats (7-week-old) were castrated under ketamine/xylazine anesthesia, and 5 rats were randomly assigned to one group. From the next day, the agonists were dissolved in a vehicle solution and orally administered at a dose of 5 ml per kg once a day for 14 days. As the vehicle, DMSO, Co-solvent, and DW were prepared at a ratio of 4:80:16 (v/v/v), and Co-solvent was prepared by mixing PEG400, Ethanol, and Tween 80 at a ratio of 85:10:5 (v/v/v). 24 hours after last administration of the drug, their body weight was measured and killed. Thereafter, levator ani muscle, ventral prostate, and seminal vesicles were removed and weighed (Hershberger assay). The following Table 6 represents the result of the efficacy test in castrated male rats.

T1 sequence (P10275 whole entry): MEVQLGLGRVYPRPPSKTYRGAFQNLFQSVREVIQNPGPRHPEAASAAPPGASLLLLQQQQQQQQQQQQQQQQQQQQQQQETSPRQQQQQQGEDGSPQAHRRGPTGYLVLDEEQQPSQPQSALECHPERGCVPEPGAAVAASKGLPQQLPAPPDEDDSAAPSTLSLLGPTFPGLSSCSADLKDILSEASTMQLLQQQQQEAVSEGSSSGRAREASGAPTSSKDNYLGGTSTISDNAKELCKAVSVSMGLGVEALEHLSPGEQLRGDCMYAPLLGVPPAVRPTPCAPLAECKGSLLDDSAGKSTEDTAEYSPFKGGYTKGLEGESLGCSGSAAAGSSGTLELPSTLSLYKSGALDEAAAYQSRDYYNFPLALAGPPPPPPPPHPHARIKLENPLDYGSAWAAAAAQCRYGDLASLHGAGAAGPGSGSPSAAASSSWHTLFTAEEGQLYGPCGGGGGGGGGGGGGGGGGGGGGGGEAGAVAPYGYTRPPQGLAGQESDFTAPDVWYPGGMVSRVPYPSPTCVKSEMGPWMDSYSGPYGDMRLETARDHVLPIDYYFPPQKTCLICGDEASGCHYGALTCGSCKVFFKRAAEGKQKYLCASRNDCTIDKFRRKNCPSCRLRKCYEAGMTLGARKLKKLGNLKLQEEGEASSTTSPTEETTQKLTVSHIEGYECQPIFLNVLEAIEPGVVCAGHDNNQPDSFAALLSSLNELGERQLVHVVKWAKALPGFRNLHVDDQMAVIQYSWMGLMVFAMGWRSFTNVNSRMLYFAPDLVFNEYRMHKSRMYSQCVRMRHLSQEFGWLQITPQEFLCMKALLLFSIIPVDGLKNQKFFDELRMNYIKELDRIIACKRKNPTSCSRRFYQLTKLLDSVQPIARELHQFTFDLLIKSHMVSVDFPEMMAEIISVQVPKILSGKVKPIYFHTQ

Compound | IC50 (androgen receptor (hAR) [1]) [nM] | EC50 (androgen receptor (hAR) [2]) [nM] | levator ani muscle weight % relative to intact control group (castrated male rats; 0.3 mg/kg) [%] | seminal vesicles weight % relative to intact control group (castrated male rats; 0.3 mg/kg) [%] | ventral prostate weight % relative to intact control group (castrated male rats; 0.3 mg/kg) [%] | levator ani muscle weight % relative to intact control group (castrated male rats; 1 mg/kg) [%] | seminal vesicles weight % relative to intact control group (castrated male rats; 1 mg/kg) | ventral prostate weight % relative to intact control group (castrated male rats; 1 mg/kg) [%] | levator ani muscle weight % relative to intact control group (castrated male rats; 3 mg/kg) [%] | seminal vesicles weight % relative to intact control group (castrated male rats; 3 mg/kg) [%] | ventral prostate weight % relative to intact control group (castrated male rats; 3 mg/kg) [%] | further results
CC(=O)Nc1ccc(OC[C@@H]2CN(c3ccc(C#N)c(C(F)(F)F)c3)[C@@H](C(F)(F)F)O2)cc1 [Example 25, N-(4-(((2R,5S)-3-(4-cyano-3-(trifluoromethyl)phenyl)-2-(trifluoromethyl)oxazolidin-5-yl)methoxy)phenyl)acetamide] | 8.5 | 0.7 | 38.5 ± 4.8 | 3.4 ± 0.4 | 4.8 ± 1.6 | 61.1 ± 6.3 | 4.7 ± 1.2% | 10.9 ± 3.4 | 79.8 ± 6.7 | 8.7 ± 1.6 | 12.7 ± 2.5 | levator ani muscle weight % relative to intact control group (castrated male rats; 0.01 mg/kg): 6.7 ± 1.6%; seminal vesicles weight % relative to intact control group (castrated male rats; 0.01 mg/kg): 0.9 ± 0.2%; ventral prostate weight % relative to intact control group (castrated male rats; 0.01 mg/kg): 1.8 ± 0.3%; levator ani muscle weight % relative to intact control group (castrated male rats; 0.03 mg/kg): 8.4 ± 1.5%; seminal vesicles weight % relative to intact control group (castrated male rats; 0.03 mg/kg): 0.7 ± 0.2%; ventral prostate weight % relative to intact control group (castrated male rats; 0.03 mg/kg): 1.0 ± 0.4%; levator ani muscle weight % relative to intact control group (castrated male rats; 0.1 mg/kg): 26.5 ± 5.8%; seminal vesicles weight % relative to intact control group (castrated male rats; 0.1 mg/kg): 0.9 ± 0.2%; ventral prostate weight % relative to intact control group (castrated male rats; 0.1 mg/kg): 3.2 ± 0.9%
N#Cc1ccc(OC[C@@H]2CN(c3ccc(C#N)c(C(F)(F)F)c3)[C@@H](C(F)(F)F)O2)cc1 [Example 19, 4-((2R,5S)-5-((4-cyanophenoxy)methyl)-2-(trifluoromethyl)oxazolidin-3-yl)-2-(trifluoromethyl)benzonitrile] | 7.6 | 1 | 7.2 ± 4.3 | 4.8 ± 1.3 | 1.7 ± 0.6 | 45.9 ± 5.8 | 78.2 ± .1% | 10.2 ± 3.9 | 70.6 ± 6.6 | 17.3 ± 5.6 | 11.4 ± 3.0 | levator ani muscle weight % relative to intact control group (castrated male rats; 10 mg/kg): 63.9 ± 4.8%; seminal vesicles weight % relative to intact control group (castrated male rats; 10 mg/kg): 22.9 ± 4.3%; ventral prostate weight % relative to intact control group (castrated male rats; 10 mg/kg): 14.4 ± 2.7%; levator ani muscle weight % relative to intact control group (castrated male rats; 30 mg/kg): 78.4 ± 11.0%; seminal vesicles weight % relative to intact control group (castrated male rats; 30 mg/kg): 33.4 ± 2.0%; ventral prostate weight % relative to intact control group (castrated male rats; 30 mg/kg): 18.3 ± 4.5%; levator ani muscle weight % relative to intact control group (castrated male rats; 100 mg/kg): 68.3 ± 7.3%; seminal vesicles weight % relative to intact control group (castrated male rats; 100 mg/kg): 36.4 ± 9.2%; ventral prostate weight % relative to intact control group (castrated male rats; 100 mg/kg): 18.0 ± 5.2%
